Results published in publication PMC2972649 (Journal of Medicinal Chemistry, 2010).

Legend:
Nek1 = target: T1, Nek1 (Homo sapiens, UniProt Q96PY6); test: Nek1 Caliper kinase assay; format: biochemical; details: Nek2 versus Nek1
T1 sequence (Q96PY6 1-505 limits assumed): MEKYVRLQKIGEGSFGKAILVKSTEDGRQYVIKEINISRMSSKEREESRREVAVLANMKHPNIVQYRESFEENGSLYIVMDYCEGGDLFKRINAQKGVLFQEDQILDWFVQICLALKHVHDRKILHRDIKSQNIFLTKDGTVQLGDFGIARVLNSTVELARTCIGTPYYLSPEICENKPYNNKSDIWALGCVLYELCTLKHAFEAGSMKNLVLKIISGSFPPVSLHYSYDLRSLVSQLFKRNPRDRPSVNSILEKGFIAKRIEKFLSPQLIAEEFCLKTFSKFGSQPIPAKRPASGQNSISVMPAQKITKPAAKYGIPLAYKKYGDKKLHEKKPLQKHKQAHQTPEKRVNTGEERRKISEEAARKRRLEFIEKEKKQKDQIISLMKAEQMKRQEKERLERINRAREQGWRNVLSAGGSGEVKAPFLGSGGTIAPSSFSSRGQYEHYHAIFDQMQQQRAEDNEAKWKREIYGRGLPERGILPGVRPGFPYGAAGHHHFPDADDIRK

Nek2 = target: T2, Nek2 (Homo sapiens, UniProt P51955); format: biochemical; details: for fold improvement in Nek2 potency on substitution of the thiophene: comparator not given
T2 sequence (P51955 1-445): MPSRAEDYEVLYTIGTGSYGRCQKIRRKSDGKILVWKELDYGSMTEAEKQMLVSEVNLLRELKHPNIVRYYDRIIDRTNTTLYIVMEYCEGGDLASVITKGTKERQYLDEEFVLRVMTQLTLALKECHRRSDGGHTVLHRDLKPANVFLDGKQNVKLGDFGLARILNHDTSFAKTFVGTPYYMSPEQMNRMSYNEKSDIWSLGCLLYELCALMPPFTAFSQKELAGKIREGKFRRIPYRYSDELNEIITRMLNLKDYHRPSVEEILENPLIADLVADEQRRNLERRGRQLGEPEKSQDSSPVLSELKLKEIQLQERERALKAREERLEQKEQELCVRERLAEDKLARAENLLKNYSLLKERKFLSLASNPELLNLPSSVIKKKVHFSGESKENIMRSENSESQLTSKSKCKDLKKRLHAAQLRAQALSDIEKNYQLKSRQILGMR

SMILES	selectivity against Nek1 (Nek1)	fold improvement in Nek2 potency on substitution of the thiophene (Nek2)	fold loss of Nek2 potency compared to hit 2 (Nek2)
CCc1ccsc1-c1cnc(N)c(N2CCC(C(=O)O)CC2)n1 [Compound 35]	approximately 10 fold	approximately 4 fold	
Nc1ncc(-c2sccc2C2CC2)nc1N1CCC(C(=O)O)CC1 [Compound 36]		approximately 4 fold	
COc1cccc(-c2cnc(N)c(N3CCC(C(=O)O)CC3)n2)c1 [Compound 5]			4-5 fold
Nc1nccnc1N1CCC(C(=O)O)CC1 [Compound 8]			approximately 50 fold
COc1cc(-c2cnc(N)c(N3CC[C@H](C(=O)O)[C@H](C)C3)n2)cc(OC)c1OC [Compound 20, (−)-(3S,4S)-1-(3-Amino-6-(3,4,5-trimethoxyphenyl)pyrazin-2-yl)-3-methylpiperidine-4-carboxylic Acid]			10
